Laboratory results: PubChem BioAssay AID2060325 (Molecular Pharmacology Branch, DTP, NCI, 2025)

Test system: SK-OV-3 multi-cell spheroids, viability
Test: Anticancer human tumor SK-OV-3 cell line growth inhibition [IpAb];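 for viability, T/C: viability read after seven days of drug exposure; percent of DMSO vehicle control luminescence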
Settings: for IC50: curve of first compound; for viability, T/C: stronger effect = lower value; active = viability on the fitted dose curve at most 10% of control; inactive = the rest
Summary of the method: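 Spheroids of 60% malignant cells, 25% HUVEC and 15% MSC were exposed to targeted agents combined with ipatasertib or abemaciclib. Doses started at or near clinical Cmax (10 microM when unknown) and fell in half-log steps.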

Cn1ncnc1[C@H]1c2n[nH]c(=O)c3cc(F)cc(c23)N[C@@H]1c1ccc(F)cc1 + CCN1CCN(Cc2ccc(Nc3ncc(F)c(-c4cc(F)c5nc(C)n(C(C)C)c5c4)n3)nc2)CC1
> 100 nM: IC50 (second compound 0.01 µM) | IC50 (second compound 0.0316 µM) | IC50 (second compound 0.1 µM) | IC50 (second compound 0.316 µM)
inactive: viability, T/C (second compound 0.01 µM, first compound 0.000316 µM) 99.8% | viability, T/C (second compound 0.01 µM, first compound 0.001 µM) 93.9% | viability, T/C (second compound 0.01 µM, first compound 0.00316 µM) 86.6% | viability, T/C (second compound 0.01 µM, first compound 0.01 µM) 86.3% | viability, T/C (second compound 0.01 µM, first compound 0.0316 µM) 83.4% | viability, T/C (second compound 0.01 µM, first compound 0.1 µM) 60.2% | viability, T/C (second compound 0.0316 µM, first compound 0.000316 µM) 75.2% | viability, T/C (second compound 0.0316 µM, first compound 0.001 µM) 81.6% | viability, T/C (second compound 0.0316 µM, first compound 0.00316 µM) 70.7% | viability, T/C (second compound 0.0316 µM, first compound 0.01 µM) 63.4% | viability, T/C (second compound 0.0316 µM, first compound 0.0316 µM) 66.3% | viability, T/C (second compound 0.0316 µM, first compound 0.1 µM) 58.4% | viability, T/C (second compound 0.1 µM, first compound 0.000316 µM) 60.7% | viability, T/C (second compound 0.1 µM, first compound 0.001 µM) 59.5% | viability, T/C (second compound 0.1 µM, first compound 0.00316 µM) 56.4% | viability, T/C (second compound 0.1 µM, first compound 0.01 µM) 53.4% | viability, T/C (second compound 0.1 µM, first compound 0.0316 µM) 53.2% | viability, T/C (second compound 0.1 µM, first compound 0.1 µM) 50.5% | viability, T/C (second compound 0.316 µM, first compound 0.000316 µM) 55.8% | viability, T/C (second compound 0.316 µM, first compound 0.001 µM) 56.3% | viability, T/C (second compound 0.316 µM, first compound 0.00316 µM) 52.1% | viability, T/C (second compound 0.316 µM, first compound 0.01 µM) 52% | viability, T/C (second compound 0.316 µM, first compound 0.0316 µM) 51.4% | viability, T/C (second compound 0.316 µM, first compound 0.1 µM) 53.3% | viability, T/C (second compound 1 µM, first compound 0.000316 µM) 49.5% | viability, T/C (second compound 1 µM, first compound 0.001 µM) 45.1% | viability, T/C (second compound 1 µM, first compound 0.00316 µM) 43.2% | viability, T/C (second compound 1 µM, first compound 0.01 µM) 46.4% | viability, T/C (second compound 1 µM, first compound 0.0316 µM) 45.4% | viability, T/C (second compound 1 µM, first compound 0.1 µM) 43%
< 0.316 nM: IC50 (second compound 1 µM)
